In patent publication US20260240746A1, “TOPICAL COMPOSITION AND IMPLEMENTATIONS THEREOF” (ULTRAMARINE & PIGMENTS LIMITED, priority 2022, published 2026):
“And” between values parts separate entries of the source, which are not always exact repeats. Equal entries are not always repeated.

How the values were obtained:
skin = assay: Moisturization analysis (Scalar moisture checker); type: in vivo, human; details: skin of the hand, 20° C., 60% RH
Procedure: The topical composition samples of the present disclosure and the commercial silicones (cyclopentasiloxane, dimethicone) were applied on a skin patch and the moisture content was analyzed for a duration of 8 hrs. The test was conducted on 3 volunteers. Three areas were marked on the skin of the hand. The composition was applied by rubbing in a circular direction for a period of two minute on the marked areas. The third area was kept blank. The readings were taken after five minutes of drying by Scaler Moisture Checker. The temperature of the room was kept at 20° C. and humidity was maintained at 60% RH. The moisture analysis was done using moisture checker from Scalar Impressive works. Scalar moisture checker works on the principle of capacitance to measure the permittivity of skin. […] The checker was pressed on the desired area perpendicularly to the skin and was held for a few seconds. […] Moisture level Content of 45.1 and above represent a very high moisture level, when moisture level is between 39.1-45.0 it is high normal, between 27.1-39.0 is mid normal, between 22.1-27.0 is low normal, between 12.1 to 22.0 is low and below 12.1 is very low moisture level. A graph of time after application and the moisture level content was plotted for each composition.

[1] = tested on: Murine fibroblast cell line (3T3); assay: Skin reactivity analysis by agar diffusion assay; type: cell-based; details: 3T3 cells, 24 hours exposure
Procedure: Skin reactivity analysis was carried out for the topical composition samples by agar diffusion assay. Murine fibroblast cell line (3T3) cells were seeded onto 60 mm tissue culture grade plastic Petri dishes and incubated for 24 hrs. After 24 hrs the media was replaced by a layer of 1% agar. Stock solution of 100 mg/ml of reference standard was prepared in sterile phosphate buffered saline (PBS) and tested at 10% (100 mg/ml). 5 μl of reference standard was loaded on to 6 mm sterile Whatman filter paper discs which were placed on the agar layer. Neat topical composition sample was used for testing. Approximately 5 μl of the topical composition sample was loaded on to 6 mm sterile Whatman filter paper discs which were placed on the agar layer. Sterile PBS was used as the negative control. Positive and negative controls were run concurrently. After an exposure of 24 hours to the samples, the assays were terminated by the addition of MTT (3-[4,5-dimethylthiazol-2-yl]-2,5-diphenyltetrazolium bromide; Thiazolyl blue) (Sigma M 5655) and incubated overnight in the dark. The following day, the cells were observed under the microscope and checked for the presence of crystals under the area of sample loading. The sample causing cell death was indicated by a clear zone of inhibition. The colour was allowed to develop overnight and the zone of inhibition was measured. The readings of the test samples were then scored based on comparisons with the positive and negative controls in compliance with the USP (U.S. Pharmacopoeia) grades for the agar diffusion test (Table 2).

| SMILES | moisture content retained until 8 hours after application (skin; 8 hours after application) [%] | moisture content after application (skin; after application) [%] | Reactivity [1] | Zone of Inhibition, mean per experiment ([1]; sample neat (100% concentration), Expt 1-3, sulphate) | Zone of Inhibition, individual readings ([1]; sample neat (100% concentration), reference standard 10% (100 mg/ml), Expt 1-3, sulphate) | Zone of Inhibition, Mean ± SD of three independent experiments ([1]; sample neat (100% concentration), listed as positive control, sulphate) [cm] | Zone of Inhibition, Mean ± SD of three independent experiments ([1]; sample neat (100% concentration), sulphate) [cm] |
| --- | --- | --- | --- | --- | --- | --- | --- |
| C[Si]1(C)O[Si](C)(C)O[Si](C)(C)O[Si](C)(C)O[Si](C)(C)O1 [Cyclopentasiloxane, cyclopentasiloxane] | 21 | 23 |  |  |  |  |  |
| CCCCCCCCCCCCOS(=O)(=O)[O-].[Na+] [Positive Control, sodium dodecyl sulphate] |  |  | Severe (Zone extends greater than 1.0 cm beyond specimen) | 1.08 cm and 1.14 cm and 1.20 cm | 1.05 cm and 1.03 cm and 1.17 cm and 1.13 cm and 1.07 cm and 1.23 cm and 1.20 cm and 1.18 cm and 1.22 cm | 1.14±0.06 | 1.14 ± 0.06 |
